Test results from patent US8445680B2, “Tetrahydrothieno pyridines” (Merck Sharp & Dohme Corp., priority 2008, dated 2013).
Where a name gives a salt, the structure may show the parent alone.

Each compound was assayed against T1, FLAG-tagged full length PHD2 (Homo sapiens, UniProt Q9GZT9) (assay: PHD2 inhibition assay (time resolved fluorescence, HIF-1α peptide hydroxylation, VHL detection)). Details: 0.2 μM 2-oxoglutarate, 0.5 μM HIF-1α peptide, 2 hr at room temperature; read-out: PHD2 Activity (PHD2 binding activity expressed as IC50).
T1 construct: FLAG-tagged full length PHD2; FLAG; made in house; host or cells: baculovirus-infected Sf9 cells
Assay type: biochemical
Method: To each well of a 96-well plate was added 1 μL of test compound in DMSO and 20 μl of assay buffer (50 mM Tris pH 7.4/0.01% Tween-20/0.1 mg/ml bovine serum albumin/10 μM ferrous sulfate/1 mM sodium ascorbate/20 μg/ml catalase) containing 0.15 μg/ml FLAG-tagged full length PHD2 expressed in and purified from baculovirus-infected Sf9 cells. After a 30 min preincubation at room temperature, the enzymatic reactions were initiated by the addition of 4 μL of substrates (final concentrations of 0.2 μM 2-oxoglutarate and 0.5 μM HIF-1α peptide biotinyl-[…]).

T1 sequence (Q9GZT9 whole entry): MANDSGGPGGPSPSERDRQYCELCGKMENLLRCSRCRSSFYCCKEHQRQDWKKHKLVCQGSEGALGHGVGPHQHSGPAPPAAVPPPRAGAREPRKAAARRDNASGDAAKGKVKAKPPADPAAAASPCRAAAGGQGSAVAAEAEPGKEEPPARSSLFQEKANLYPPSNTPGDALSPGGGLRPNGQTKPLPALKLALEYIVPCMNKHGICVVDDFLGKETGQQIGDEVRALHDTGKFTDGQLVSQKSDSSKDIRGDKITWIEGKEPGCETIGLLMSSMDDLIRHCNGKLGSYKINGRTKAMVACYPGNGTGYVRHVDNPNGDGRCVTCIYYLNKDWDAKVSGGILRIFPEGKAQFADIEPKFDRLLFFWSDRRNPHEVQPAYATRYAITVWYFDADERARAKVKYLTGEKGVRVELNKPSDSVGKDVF

IC50, ≤ 10 nM:
O=C(O)CNC(=O)c1c(O)c2c(n(Cc3ccc(-c4ccccc4C(F)(F)F)nc3)c1=O)CSC2 [Example 45, N-{[4-hydroxy-2-oxo-1-({6-[2-(trifluoromethyl)phenyl]pyridinium-3-yl}methyl)-1,2,5,7-tetrahydrothieno[3,4-b]pyridin-3-yl]carbonyl}glycine trifluoroacetate]
N#Cc1cccc(-c2ccc(Cn3c4c(c(O)c(C(=O)NCC(=O)O)c3=O)CSC4)cc2)c1 [Example 46, N-({1-[(3′-cyanobiphenyl-4-yl)methyl]-4-hydroxy-2-oxo-1,2,5,7-tetrahydrothieno[3,4-b]pyridin-3-yl}carbonyl)glycine]
CSc1ccccc1-c1ccc(Cn2c3c(c(O)c(C(=O)NCC(=O)O)c2=O)CSC3)cn1 [Example 47, N-{[4-hydroxy-1-({6-[2-(methylthio)phenyl]pyridinium-3-yl}methyl)-2-oxo-1,2,5,7-tetrahydrothieno[3,4-b]pyridin-3-yl]carbonyl}glycine trifluoroacetate]
Cc1ccccc1-c1ccc(Cn2c3c(c(O)c(C(=O)NCC(=O)O)c2=O)CSC3)cn1 [Example 48, N-[(4-hydroxy-1-{[6-(2-methylphenyl)pyridinium-3-yl-methyl}-2-oxo-1,2,5,7-tetrahydrothieno[3,4-b]pyridin-3-yl)carbonyl]glycine trifluoroacetate]
O=C(O)CNC(=O)c1c(O)c2c(n(Cc3ccc(-c4cccc(OC(F)(F)F)c4)nc3)c1=O)CSC2 [Example 49, N-{[4-hydroxy-2-oxo-1-({6-[3-(trifluoromethoxy)phenyl]pyridinium-3-yl}methyl)-1,2,5,7-tetrahydrothieno[3,4-b]pyridin-3-yl]carbonyl}glycine trifluoroacetate]
CCc1ccccc1-c1ccc(Cn2c3c(c(O)c(C(=O)NCC(=O)O)c2=O)CSC3)cn1 [Example 50, N-[(l-{[6-(2-ethylphenyl)pyridinium-3-yl]methyl}-4-hydroxy-2-oxo-1,2,5,7-tetrahydrothieno[3,4-b]pyridin-3-yl)carbonyl]glycine trifluoroacetate]
O=C(O)CNC(=O)c1c(O)c2c(n(Cc3ccc(-c4cc(F)ccc4F)nc3)c1=O)CSC2 [Example 51, N-[(l-{[6-(2,5-difluorophenyl)pyridinium-3-yl]methyl}-4-hydroxy-2-oxo-1,2,5,7-tetrahydrothieno[3,4-6]pyridin-3-yl)carbonyl]glycine trifluoroacetate]
O=C(O)CNC(=O)c1c(O)c2c(n(Cc3ccc(-c4cccc5ncccc45)cc3)c1=O)CSC2 [Example 52, N-{[4-hydroxy-2-oxo-1-(4-quinolinium-5-ylbenzyl)-1,2,5,7-tetrahydrothieno[3,4-b]pyridin-3-yl]carbonyl}glycine chloride]
O=C(O)CNC(=O)c1c(O)c2c(n(Cc3cnc(-c4ccccc4Cl)cn3)c1=O)CSC2 [Example 53, N-[(1-{[-5-(2-chlorophenyl)pyrazin-2-yl]methyl}-4-hydroxy-2-oxo-1,2,5,7-tetrahydrothieno[3,4-b]pyridin-3-yl)carbonyl]glycine]
Cc1ccccc1-c1cnc(Cn2c3c(c(O)c(C(=O)NCC(=O)O)c2=O)CSC3)cn1 [Example 54, N-[(4-hydroxy-1-{[5-(2-methylphenyl)pyrazin-2-yl]methyl}-2-oxo-1,2,5,7-tetrahydrothieno[3,4-b]pyridin-3-yl)carbonyl]glycine]
CSc1ccccc1-c1cnc(Cn2c3c(c(O)c(C(=O)NCC(=O)O)c2=O)CSC3)cn1 [Example 55, N-{[4-hydroxy-1-({5-[2-(methylthio)phenyl]pyrazin-2-yl}methyl)-2-oxo-1,2,5,7-tetrahydrothieno[3,4-b]pyridin-3-yl]carbonyl}glycine]
